# Data published in patent US8846711B2, “Heterocyclic acrylamides and their use as pharmaceuticals” (Fab Pharma S.A.S., priority 2009, dated 2014).
# Where two headings read alike, the source gives them in different places.
# What was measured:
# [1] = tested on: C. albicans (ATCC 90028); test: MIC determination using susceptibility method (broth microdilution); assay type: cell-based; conditions: Candida albicans
# Experimental: (§1) Minimum inhibitory concentrations (MICs) were determined by broth microdilution according to CLSI guidelines (CLSI, M100-20^1, M7-A8^2, M27-A3^3). The compounds were tested in the range from […]. Colonies were taken directly from a second-pass culture plate and prepared to a suspension equivalent to the 0.5 McFarland standard using normal saline. […] The panels were incubated at 35° C. for 16 to 20 hours before reading the MIC endpoints. The compounds of Examples 12, 29, 59, 63 and 66-71 were dissolved in DMSO to make the initial solutions of 5120 μg/ml. These solutions were diluted 1:10 in sterile water to a stock solution of 512 μg/ml. The stock solutions were further diluted into the appropriate broth medium for the sequential dilutions used in the broth microdilution panels. S. pneumoniae was tested in Mueller Hinton (MH) broth with 3% lysed horse blood and C. albicans was tested in RPMI-1640 medium. All other organisms were tested in MH broth.
# [2] = tested on: E. coli (ATCC 25922); test: as above; assay type: cell-based; conditions: Escherichia coli
# Experimental: as §1
# [3] = tested on: E. faecalis (ATCC 29212); test: as above; assay type: cell-based; conditions: Enterococcus faecalis
# Experimental: as §1
# [4] = tested on: MRSA (IHMA #510059); test: as above; assay type: cell-based; conditions: Staphylococcus aureus, read-out: MIC (μg/ml) MRSA (IHMA #510059)
# Experimental: as §1
# [5] = tested on: MSSA (IHMA #555189); test: as above; assay type: cell-based; conditions: Staphylococcus aureus, read-out: MIC (μg/ml) MSSA (IHMA #555189)
# Experimental: as §1
# [6] = tested on: S. aureus ATCC 29213; test: as above; assay type: cell-based; conditions: Staphylococcus aureus
# Experimental: as §1
# [7] = tested on: S. pneumoniae (ATCC 49619); test: as above; assay type: cell-based; conditions: Streptococcus pneumoniae
# Experimental: as §1
# [8] = target: human albumin (HSA) (Homo sapiens (Human), UniProt P02768); test: HSA binding analysis using a chiral HSA column; assay type: in vitro ADME; conditions: for HSA Binding (%): AB%=[k′/(k′+1)]*100, pH 7.0; for HSA Binding (%) / Conclusion (HSA binding class): chiral HSA column; for k′: capacity factor, k′=(Tr−T0)/T0; for Tr: retention time on chiral HSA column, pH 7.0, 37° C.; for affinity in vitro to human albumin: text summary of Table 7
# Sequence of human albumin (HSA) (P02768 25-609): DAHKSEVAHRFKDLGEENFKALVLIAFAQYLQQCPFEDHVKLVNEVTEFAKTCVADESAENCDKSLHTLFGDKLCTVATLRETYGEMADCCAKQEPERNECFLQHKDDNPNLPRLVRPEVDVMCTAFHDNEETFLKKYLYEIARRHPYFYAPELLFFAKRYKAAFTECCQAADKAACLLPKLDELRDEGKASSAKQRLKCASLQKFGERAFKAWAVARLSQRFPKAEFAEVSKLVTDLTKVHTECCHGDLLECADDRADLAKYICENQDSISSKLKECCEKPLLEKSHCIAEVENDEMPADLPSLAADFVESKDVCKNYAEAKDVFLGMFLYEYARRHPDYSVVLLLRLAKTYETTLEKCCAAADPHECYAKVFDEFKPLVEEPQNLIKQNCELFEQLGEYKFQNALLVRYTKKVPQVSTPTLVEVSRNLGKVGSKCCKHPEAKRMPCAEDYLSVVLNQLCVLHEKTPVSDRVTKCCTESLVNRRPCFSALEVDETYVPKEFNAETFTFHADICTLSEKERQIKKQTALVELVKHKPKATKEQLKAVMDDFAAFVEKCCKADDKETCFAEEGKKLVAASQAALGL
# Text: The test system used in this analysis was an HSA chiral column.
# The relationship between the retention time (Tr) and percentage of albumin binding (AB %) depended on the dead time (TO) and the capacity factor (k′): AB%=[k′/(k′+1)]*100
# HSA binding was classified as follows:
# 75%≦AB<90%: Moderate binding
# [9] = ATCC90028, read-out: MIC (μg/ml) C. albicans (ATCC 90028)
# [10] = ATCC25922, read-out: MIC (μg/ml) E. coli (ATCC 25922)
# [11] = ATCC29212, read-out: MIC (μg/ml) E. faecalis (ATCC 29212)
# [12] = ATCC29213, read-out: MIC (μg/ml) S. aureus ATCC 29213
# [13] = ATCC49619, read-out: MIC (μg/ml) S. pneumoniae (ATCC 49619)
# [14] = ATCC90028, Broth microdilution, RPMI-1640 medium, read-out: MIC (μg/ml) C. albicans (ATCC 90028)
# [15] = ATCC25922, Broth microdilution, MH broth, read-out: MIC (μg/ml) E. coli (ATCC 25922)
# [16] = ATCC29212, Broth microdilution, MH broth, read-out: MIC (μg/ml) E. faecalis (ATCC 29212)
# [17] = ATCC29213, Broth microdilution, MH broth, read-out: MIC (μg/ml) S. aureus ATCC 29213
# [18] = ATCC49619, Broth microdilution, MH broth with 3% lysed horse blood, read-out: MIC (μg/ml) S. pneumoniae (ATCC 49619)
structure (smiles),measurement,setting,value
"Cc1c(C2CN(C(=O)/C=C/c3cnc4c(c3)CC3(CCN(C)CC3)C(=O)N4)C2)oc2ccccc12 [Example 68, (E)-1′-Methyl-6-(3-(3-(3-methylbenzofuran-2-yl)azetidin-1-yl)-3-oxoprop-1-enyl)-1H-spiro[[1,8]naphthyridine-3,4′-piperidin]-2(4H)-one]",MIC,[1]; [9],> 128 µg/mL
same,MIC,[2]; [10],> 128 µg/mL
same,MIC,[3]; [11],> 128 µg/mL
same,MIC,[4],0.5 µg/mL
same,MIC,[5],0.5 µg/mL
same,MIC,[6]; [12],0.5 µg/mL
same,MIC,[7]; [13],128 µg/mL
same,HSA Binding (%),[8],91.8%
same,k′,[8],11.216
same,Conclusion (HSA binding class),[8],High binding (AB≧90%: High binding)
same,Tr,[8],9.414 min
same,affinity in vitro to human albumin,[8],high affinity
"CCCO/N=C(/C)C1CN(C(=O)/C=C/c2cnc3c(c2)CCC(=O)N3)C1 [Example 71, 6-((E)-3-Oxo-3-(3-((Z)-1-(propoxyimino)ethyl)azetidin-1-yl)prop-1-enyl)-3,4-dihydro-1,8-naphthyridin-2(1H)-one]",MIC,[1]; [14],> 128 µg/mL
same,MIC,[2]; [15],> 128 µg/mL
same,MIC,[3]; [16],> 128 µg/mL
same,MIC,"[4]; Broth microdilution, MH broth",4 µg/mL
same,MIC,"[5]; Broth microdilution, MH broth",8 µg/mL
same,MIC,[6]; [17],4 µg/mL
same,MIC,[7]; [18],128 µg/mL
same,HSA Binding (%),[8],28.8%
same,k′,[8],0.404
same,Conclusion (HSA binding class),[8],Low binding (AB<75%: Low binding)
same,Tr,[8],1.084 min
same,affinity in vitro to human albumin,[8],low affinity
"O=C1CCc2cc(/C=C/C(=O)N3CC(c4cc5ccccc5o4)C3)cnc2N1 [Example 59, (E)-6-(3-(3-(Benzofuran-2-yl)azetidin-1-yl)-3-oxoprop-1-enyl)-3,4-dihydro-1,8-naphthyridin-2(1H)-one]",MIC,[1]; [9],128 µg/mL
same,MIC,[2]; [10],64 µg/mL
same,MIC,[3]; [11],64 µg/mL
same,MIC,[4],0.06 µg/mL
same,MIC,[5],0.06 µg/mL
same,MIC,[6]; [12],0.06 µg/mL
same,MIC,[7]; [13],32 µg/mL
same,HSA Binding (%),[8],82.4%
same,k′,[8],4.678
same,Conclusion (HSA binding class),[8],Moderate
same,Tr,[8],4.378 min
same,affinity in vitro to human albumin,[8],moderate affinity
"CCCCOC1CN(C(=O)/C=C/c2cnc3c(c2)CC2(CCN(C)CC2)C(=O)N3)C1 [Example 63, (E)-6-(3-(3-Butoxyazetidin-1-yl)-3-oxoprop-1-enyl)-1′-methyl-1H-spiro[[1,8]naphthyridine-3,4′-piperidin]-2(4H)-one]",MIC,[1]; [9],128 µg/mL
same,MIC,[2]; [10],64 µg/mL
same,MIC,[3]; [11],64 µg/mL
same,MIC,[4],1 µg/mL
same,MIC,[5],1 µg/mL
same,MIC,[6]; [12],1 µg/mL
same,MIC,[7]; [13],64 µg/mL
same,HSA Binding (%),[8],56.3%
same,k′,[8],1.288
same,Conclusion (HSA binding class),[8],Low binding (AB<75%: Low binding)
same,Tr,[8],1.760 min
same,affinity in vitro to human albumin,[8],low affinity
"CCCO/N=C(\C)C1CN(C(=O)/C=C/c2cnc3c(c2)CCC(=O)N3)C1 [Example 70, 6-((E)-3-Oxo-3-(3-((E)-1-(propoxyimino)ethyl)azetidin-1-yl)prop-1-enyl)-3,4-dihydro-1,8-naphthyridin-2(1H)-one]",MIC,[1]; [14],> 128 µg/mL
same,MIC,[2]; [15],> 128 µg/mL
same,MIC,[3]; [16],> 128 µg/mL
same,MIC,"[4]; Broth microdilution, MH broth",0.5 µg/mL
same,MIC,"[5]; Broth microdilution, MH broth",0.5 µg/mL
same,MIC,[6]; [17],0.5 µg/mL
same,MIC,[7]; [18],> 128 µg/mL
same,HSA Binding (%),[8],36.7%
same,k′,[8],0.580
same,Conclusion (HSA binding class),[8],Low binding (AB<75%: Low binding)
same,Tr,[8],1.219 min
same,affinity in vitro to human albumin,[8],low affinity
"CN1CCC2(CC1)Cc1cc(/C=C/C(=O)N3CC(c4cc5ccccc5o4)C3)cnc1NC2=O [Example 69, (E)-6-(3-(3-(Benzofuran-2-yl)azetidin-1-yl)-3-oxoprop-1-en-1-yl)-1′-methyl-1H-spiro[[1,8]naphthyridine-3,4′-piperidin]-2(4H)-one]",MIC,[1]; [9],> 128 µg/mL
same,MIC,[2]; [10],> 128 µg/mL
same,MIC,[3]; [11],> 128 µg/mL
same,MIC,[4],1 µg/mL
same,MIC,[5],1 µg/mL
same,MIC,[6]; [12],1 µg/mL
same,MIC,[7]; [13],128 µg/mL
same,HSA Binding (%),[8],88.5%
same,k′,[8],7.730
same,Conclusion (HSA binding class),[8],Moderate
same,Tr,[8],6.734 min
same,affinity in vitro to human albumin,[8],moderate affinity
"Cc1c(C2CN(C(=O)/C=C/c3cnc4c(c3)CCC(=O)N4)C2)oc2ccccc12 [Example 67, (E)-6-(3-(3-(3-Methylbenzofuran-2-yl)azetidin-1-yl)-3-oxoprop-1-enyl)-3,4-dihydro-1,8-naphthyridin-2(1H)-one]",MIC,[1]; [9],> 128 µg/mL
same,MIC,[2]; [10],> 128 µg/mL
same,MIC,[3]; [11],> 128 µg/mL
same,MIC,[4],0.06 µg/mL
same,MIC,[5],0.06 µg/mL
same,MIC,[6]; [12],0.06 µg/mL
same,MIC,[7]; [13],128 µg/mL
same,HSA Binding (%),[8],89.3%
same,k′,[8],8.360
same,Conclusion (HSA binding class),[8],Moderate
same,Tr,[8],7.229 min
same,affinity in vitro to human albumin,[8],moderate affinity
"O=C1CCc2cc(/C=C/C(=O)N3CC(OCCc4cccs4)C3)cnc2N1 [Example 29, (E)-6-(3-Oxo-3-(3-(2-(thiophen-2-yl)ethoxy)azetidin-1-yl)prop-1-enyl)-3,4-dihydro-1,8-naphthyridin-2(1H)-one]",MIC,[1]; [9],> 128 µg/mL
same,MIC,[2]; [10],> 128 µg/mL
same,MIC,[3]; [11],> 128 µg/mL
same,MIC,[4],0.5 µg/mL
same,MIC,[5],0.5 µg/mL
same,MIC,[6]; [12],0.5 µg/mL
same,MIC,[7]; [13],> 128 µg/mL
same,HSA Binding (%),[8],55.7%
same,k′,[8],1.259
same,Conclusion (HSA binding class),[8],Low binding (AB<75%: Low binding)
same,Tr,[8],1.743 min
same,affinity in vitro to human albumin,[8],low affinity
"CN1CCC2(CC1)Cc1cc(/C=C/C(=O)N3CC(OCCc4cccs4)C3)cnc1NC2=O [Example 66, (E)-1′-Methyl-6-(3-oxo-3-(3-(2-(thiophen-2-yl)ethoxy)azetidin-1-yl)prop-1-en-1-yl)-1H-spiro[[1,8]naphthyridine-3,4′-piperidin]-2(4H)-one]",MIC,[1]; [9],64 µg/mL
same,MIC,[2]; [10],64 µg/mL
same,MIC,[3]; [11],64 µg/mL
same,MIC,[4],0.5 µg/mL
same,MIC,[5],0.25 µg/mL
same,MIC,[6]; [12],0.25 µg/mL
same,MIC,[7]; [13],64 µg/mL
